Values quoted from earlier work in patent US20060045928A1, “Composition containing herbal medicine component for promoting absorption and production method thereof” (priority 2004, published 2006).

Conditions: carrot fried with oil

CC1=C(/C=C/C(C)=C/C=C/C(C)=C/C=C/C=C(C)/C=C/C=C(C)/C=C/C2=C(C)CCCC2(C)C)C(C)(C)CCC1 [β-carotene]
absorption rate improvement, compared with eating raw carrot: 5 to 10 times
